Measurements: patent US8119563B2, “N-substituted azacycles” (FMC Corporation, priority 2003, dated 2012)

Tested on: tobacco budworm (Heliothis virescens [Fabricius])
Assay: surface-treated diet test, insecticidal activity against tobacco budworm
Assay type: in vivo
Conditions: 0.25 millimoles of candidate insecticide on the surface of the diet, second instar larvae, five-day exposure; for Percent Mortality: compared to total number of insects infested; for Percent Growth Inhibition: inhibition of insect weight relative to untreated controls
How it was run: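 Second-instar larvae (~5 mg) were held five days at 25° C and 60% RH on artificial diet whose surface carried dried compound (0.25 millimolar standard rate; DMSO serial dilutions for rate series, six replicates each). Readouts: mortality and weight inhibition relative to DMSO-treated controls.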

SMILES | Percent Mortality [%] | Percent Growth Inhibition [%]
CCn1nnc(-c2ccc(CN3CCC(O)(C(c4ccc(OC(F)(F)F)cc4)c4ccc(OC(F)(F)F)cc4)CC3)cc2)n1 [Compound 25] | 100 | 100
CCON=Cc1ccc(C[N+]2([O-])CCC(O)(C(c3ccc(OC(F)(F)F)cc3)c3ccc(Cl)cc3Cl)CC2)cc1 (centres unmarked) [Compound 453] | 100 | 100
O=C(O)CC(O)(CC(=O)O)C(=O)[O-].OC1(C(c2ccc(C(F)(F)F)cc2)c2ccc(C(F)(F)F)cc2)CC[N+](O)(Cc2ccc(Oc3ccc(Cl)nn3)cc2)CC1 (centres unmarked) [Compound 488] | 100 | 100
[O-][N+]1(Cc2ccc(Oc3ccccn3)cc2)CCC(O)(C(c2ccc(C(F)(F)F)cc2)c2ccc(C(F)(F)F)cc2)CC1 (centres unmarked) [Compound 111] | 100 | 100
CCOC(C)C(=O)[O-].OC1(C(c2ccc(OC(F)(F)F)cc2)c2ccc(OC(F)(F)F)cc2)CC[N+](O)(Cc2ccc(Oc3ccccn3)cc2)CC1 (centres unmarked) [Compound 503] | 100 | 100
Cc1ccc(C(c2ccc(OC(F)(F)F)cc2)C2(O)CC[N+]([O-])(Cc3ccc(Oc4ccccn4)cc3)CC2)cc1 (centres unmarked) [Compound 340] | 100 | 100
CCn1nnc(-c2ccc(C[N+]3([O-])CCC(O)(C(c4ccc(OC(F)(F)F)cc4)c4ccc(OC(F)(F)F)cc4)CC3)cc2)n1 (centres unmarked) [Compound 114] | 100 | 100
N#Cc1cccnc1Oc1ccc(C[N+]2([O-])CCC(O)(C(c3ccc(OC(F)(F)F)cc3)c3ccc(OC(F)(F)F)cc3)CC2)cc1 (centres unmarked) [Compound 359] | 100 | 100
COc1cc(CN2CCC(O)(C(c3ccc(OC(F)(F)F)cc3)c3ccc(OC(F)(F)F)cc3)CC2)ccc1Oc1ccccn1 [Compound 447] | 100 | 100
O=C([O-])C12CC3CC(CC(C3)C1)C2.OC1(C(c2ccc(OC(F)(F)F)cc2)c2ccc(OC(F)(F)F)cc2)CC[N+](O)(Cc2ccc(Oc3ccccn3)cc2)CC1 (centres unmarked) [Compound 511] | 100 | 100
CCCNC(=O)Oc1ccc(CN2CCC(O)(C(c3ccc(OC(F)(F)F)cc3)c3ccc(OC(F)(F)F)cc3)CC2)cc1 [Compound 300] | 100 | 100
[O-][N+]1(Cc2ccc(Oc3ccccn3)cc2)CCC(O)(C(c2ccc(OC(F)(F)F)cc2)c2ccc(Cl)c(Cl)c2)CC1 (centres unmarked) [Compound 455] | 100 | 100
O=C(Nc1ccc(CN2CCC(O)(C(c3ccc(OC(F)(F)F)cc3)c3ccc(OC(F)(F)F)cc3)CC2)cc1)OCC1CC1 [Compound 327] | 100 | 100
O=C(NCc1ccc(Cl)c(Cl)c1)Oc1ccc(CN2CCC(O)(C(c3ccc(OC(F)(F)F)cc3)c3ccc(OC(F)(F)F)cc3)CC2)cc1 [Compound 323] | 33 | 100
[O-][N+]1(Cc2ccc(Oc3ccccn3)cc2)CCC(O)(C(c2ccc(OC(F)F)cc2)c2ccc(OC(F)(F)F)cc2)CC1 (centres unmarked) [Compound 347] | 100 | 100
CC(C)(C)NC(=O)Oc1ccc(CN2CCC(O)(C(c3ccc(OC(F)(F)F)cc3)c3ccc(OC(F)(F)F)cc3)CC2)cc1 [Compound 311] | 100 | 100
